Results taken from paper PMC11791039, “A split intein and split luciferase-coupled system for detecting protein-protein interactions” (Molecular Systems Biology, 2024).
Values joined by “and” are separate entries in the source; they are usually repeats but may differ in a detail not shown here. Identical values can stand only once.

Experiments:
Type in all cases: cell-based
EGFR(L858R)/SHC1 = biological target: T1, EGFR(L858R)/SHC1 (Homo sapiens, UniProt P00533, L858R); assay: SIMPL2 assay EGFR(L858R)/SHC1; settings: for SIMPL2 signal, L858R (Fig. 3D): replicates 1-4
T1 construct: β10-IN (tNLuc β10 peptide + GP41-1 split intein N fragment) (C); V5; expressed in transfected cells

control = biological target: T2, control (Homo sapiens, UniProt P01116, G12C); assay: SIMPL2 assay, control of Fig. 3B-D; settings: replicates 1-4
T2 construct: IC-β9 (GP41-1 split intein C fragment + tNLuc β9 peptide) (N); FLAG; expressed in transfected cells

EGFR(WT)/SHC1 = biological target: T3, EGFR(WT)/SHC1 (Homo sapiens, UniProt P00533); assay: SIMPL2 assay EGFR(WT)/SHC1; settings: for SIMPL2 signal, WT (Fig. 3D): replicates 1-4
T3 construct: β10-IN (tNLuc β10 peptide + GP41-1 split intein N fragment) (C); V5; expressed in transfected cells

MDM2/MDM4 interaction = biological target: T4, MDM2/MDM4 interaction (Homo sapiens, UniProt O15151+Q00987); assay: SIMPL2 assay MDM2/MDM4; settings: for SIMPL2 signal, MDM2/MDM4 (Fig. 4A): replicates 1-4
T4 construct: β10-IN (tNLuc β10 peptide + GP41-1 split intein N fragment) (C); V5; IC-β9 (GP41-1 split intein C fragment + tNLuc β9 peptide) (N); FLAG; expressed in transfected cells
Method: We next tested the system with molecular glues, which are small molecule compounds that induce target protein interaction. […] To clarify, the two protein molecules are anchored together through a pair of dimerized RO-5963 molecules. […] Therefore, its binding kinetics display a monophasic change.
Figure 4 Evaluation of SIMPL2 as a drug discovery tool using molecular glue and PROTACs. […] Samples were measured and normalized as described in Materials and Methods. […] The cells were then subjected to SIMPL2 luciferase measurement, and the raw values are plotted.
Stable cells of target protein pair were created using Cas9 CRISPR. To characterize PPI modulators, the cells were seeded in 384 well plate (10,000 cells/well) and incubated for 5 h. […] Average signal of wells without either deoxycycline or compound treatment was used as blank or ‘floor’ signal (SF). The average signal of wells with deoxycycline treatment but without compound treatment was used as maximal interaction or ‘ceiling’ (SC). SIMPL2 reading of each sample (Ssample) was normalized according to the formula S^*sample = (Ssample– SF)/(SC– SF) x 100%, in which S^*sample stands for normalized signal. The normalized data of inhibitor experiments were fitted into a four-parameter inhibitor-response model.

T2 sequence (P01116 1-185 isoform P01116-2 G12C limits assumed): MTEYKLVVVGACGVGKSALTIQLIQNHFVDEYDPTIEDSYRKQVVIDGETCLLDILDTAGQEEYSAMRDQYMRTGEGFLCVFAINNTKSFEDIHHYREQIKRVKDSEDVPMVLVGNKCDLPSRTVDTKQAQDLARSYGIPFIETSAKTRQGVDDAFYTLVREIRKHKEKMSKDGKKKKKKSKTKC
T4 sequence (Q00987 whole entry, the tested form may be a part): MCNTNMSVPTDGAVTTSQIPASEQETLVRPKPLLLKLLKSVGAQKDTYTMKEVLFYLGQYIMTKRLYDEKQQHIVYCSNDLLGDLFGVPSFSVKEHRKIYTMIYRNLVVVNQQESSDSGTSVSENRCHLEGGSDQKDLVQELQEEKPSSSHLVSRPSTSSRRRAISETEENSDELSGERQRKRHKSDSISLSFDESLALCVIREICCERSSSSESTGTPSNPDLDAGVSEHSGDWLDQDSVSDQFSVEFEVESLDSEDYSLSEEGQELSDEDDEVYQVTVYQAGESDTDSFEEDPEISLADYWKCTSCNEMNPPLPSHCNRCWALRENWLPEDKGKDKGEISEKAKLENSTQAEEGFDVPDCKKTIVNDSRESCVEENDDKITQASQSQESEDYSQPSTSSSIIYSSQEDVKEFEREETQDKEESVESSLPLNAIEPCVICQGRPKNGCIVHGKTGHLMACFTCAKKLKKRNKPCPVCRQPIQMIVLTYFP
T4 sequence (O15151 whole entry, the tested form may be a part): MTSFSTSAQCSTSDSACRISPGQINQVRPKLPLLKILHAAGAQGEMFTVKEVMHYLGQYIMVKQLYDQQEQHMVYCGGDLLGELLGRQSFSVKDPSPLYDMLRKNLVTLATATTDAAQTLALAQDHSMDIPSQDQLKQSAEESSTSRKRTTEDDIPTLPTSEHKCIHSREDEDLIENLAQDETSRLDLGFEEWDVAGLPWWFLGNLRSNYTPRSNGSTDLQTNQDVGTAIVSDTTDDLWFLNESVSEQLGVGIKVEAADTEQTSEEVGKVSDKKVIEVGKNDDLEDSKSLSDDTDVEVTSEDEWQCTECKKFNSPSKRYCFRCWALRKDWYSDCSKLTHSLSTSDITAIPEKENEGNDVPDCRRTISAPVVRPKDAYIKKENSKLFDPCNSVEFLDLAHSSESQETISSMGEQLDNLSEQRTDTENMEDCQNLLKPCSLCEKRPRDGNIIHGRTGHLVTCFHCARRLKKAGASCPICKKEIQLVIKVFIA

## Cn1cnc2c(F)c(Nc3ccc(Br)cc3Cl)c(C(=O)NOCCO)cc21 [selumetinib, Selumetinib]
EGFR(L858R)/SHC1; AZD6244 6.4e-6 uM
  SIMPL2 signal, L858R (Fig. 3D): 107.975 and 92.9525 and 107.024 and 103.355
EGFR(L858R)/SHC1; AZD6244 3.2e-5 uM
  SIMPL2 signal, L858R (Fig. 3D): 88.2795 and 92.9261 and 92.1077 and 96.4375
EGFR(L858R)/SHC1; AZD6244 0.00016 uM
  SIMPL2 signal, L858R (Fig. 3D): 108.688 and 85.5073 and 82.6824 and 92.9525
EGFR(L858R)/SHC1; AZD6244 0.0008 uM
  SIMPL2 signal, L858R (Fig. 3D): 91.1572 and 94.7742 and 86.1145 and 84.24
EGFR(L858R)/SHC1; AZD6244 0.004 uM
  SIMPL2 signal, L858R (Fig. 3D): 85.9825 and 79.039 and 94.0877 and 83.58
EGFR(L858R)/SHC1; AZD6244 0.02 uM
  SIMPL2 signal, L858R (Fig. 3D): 89.8635 and 58.7628 and 116.819 and 92.2661
EGFR(L858R)/SHC1; AZD6244 0.1 uM
  SIMPL2 signal, L858R (Fig. 3D): 96.4375 and 99.3416 and 96.3319 and 106.18
EGFR(L858R)/SHC1; AZD6244 0.5 uM
  SIMPL2 signal, L858R (Fig. 3D): 85.5073 and 101.612 and 96.3583 and 99.632
EGFR(L858R)/SHC1; doxycycline + compound 16 h
  effect on EGFR(L858R)/SHC1 interaction signal: no effect
control; AZD6244 6.4e-6 uM
  SIMPL2 signal, control (Fig. 3D): 109.596 and 130.088
control; AZD6244 3.2e-5 uM
  SIMPL2 signal, control (Fig. 3D): 98.632 and 104.891 and 97.5584 and 100.637
control; AZD6244 0.00016 uM
  SIMPL2 signal, control (Fig. 3D): 97.4795 and 101.781 and 98.0162 and 96.0508
control; AZD6244 0.0008 uM
  SIMPL2 signal, control (Fig. 3D): 100.171 and 103.684 and 97.3453 and 101.418
control; AZD6244 0.004 uM
  SIMPL2 signal, control (Fig. 3D): 92.396 and 92.6013 and 98.3715
control; AZD6244 0.02 uM
  SIMPL2 signal, control (Fig. 3D): 95.5614
control; AZD6244 0.1 uM
  SIMPL2 signal, control (Fig. 3D): 91.3936 and 91.141
control; AZD6244 0.5 uM
  SIMPL2 signal, control (Fig. 3D): 89.4044
EGFR(WT)/SHC1; AZD6244 6.4e-6 uM
  SIMPL2 signal, WT (Fig. 3D): 117.981 and 128.314 and 91.3721 and 97.094
EGFR(WT)/SHC1; AZD6244 3.2e-5 uM
  SIMPL2 signal, WT (Fig. 3D): 96.8718 and 91.2055 and 86.3725 and 98.1494
EGFR(WT)/SHC1; AZD6244 0.00016 uM
  SIMPL2 signal, WT (Fig. 3D): 96.2607 and 97.2051 and 90.2055 and 118.204
EGFR(WT)/SHC1; AZD6244 0.0008 uM
  SIMPL2 signal, WT (Fig. 3D): 91.2055 and 95.2608 and 88.9279 and 100.427
EGFR(WT)/SHC1; AZD6244 0.004 uM
  SIMPL2 signal, WT (Fig. 3D): 91.5388 and 82.4283 and 71.7068 and 83.0949
EGFR(WT)/SHC1; AZD6244 0.02 uM
  SIMPL2 signal, WT (Fig. 3D): 79.8174 and 81.2062 and 88.8723 and 103.205
EGFR(WT)/SHC1; AZD6244 0.1 uM
  SIMPL2 signal, WT (Fig. 3D): 113.815 and 112.593 and 100.427 and 98.6494
EGFR(WT)/SHC1; AZD6244 0.5 uM
  SIMPL2 signal, WT (Fig. 3D): 103.76 and 101.094 and 97.3717 and 91.7054
EGFR(WT)/SHC1; doxycycline + compound 16 h
  inhibition of EGFR(WT)/SHC1 interaction signal: no effect
MDM2/MDM4 interaction; 16 h with doxycycline
  induction of MDM2/MDM4 interaction: not observed
MDM2/MDM4 interaction; AZD6244 0.013717 uM
  SIMPL2 signal, MDM2/MDM4 (Fig. 4A): 105.342 and 94.3499 and 91.2095 and 111.623
MDM2/MDM4 interaction; AZD6244 0.041152 uM
  SIMPL2 signal, MDM2/MDM4 (Fig. 4A): 84.4799 and 83.2835 and 83.9564 and 94.7238
MDM2/MDM4 interaction; AZD6244 0.37037 uM
  SIMPL2 signal, MDM2/MDM4 (Fig. 4A): 85.1528 and 73.4882 and 95.2472 and 81.3394
MDM2/MDM4 interaction; AZD6244 1.11111 uM
  SIMPL2 signal, MDM2/MDM4 (Fig. 4A): 73.7125 and 92.2563 and 82.1619 and 85.5267
MDM2/MDM4 interaction; AZD6244 3.33333 uM
  SIMPL2 signal, MDM2/MDM4 (Fig. 4A): 70.0486 and 88.8915 and 67.3568 and 90.3869
MDM2/MDM4 interaction; AZD6244 10 uM
  SIMPL2 signal, MDM2/MDM4 (Fig. 4A): 78.4232 and 90.5365 and 82.0123 and 90.6113
